Assay results published in patent US20060014738A1, “Fungicidal combination of active substances” (priority 2002, published 2006).

These molecules were tested on Pyrenophora teres (assay: Pyrenophora teres test (barley)/curative). Settings: curative, application rate of active compound 100 g/ha, evaluation 7 days after inoculation, 0% = control, 100% = no infection.
Format: in vivo
Description: Pyrenophora teres Test (Barley)/Curative [table] To produce a suitable preparation of active compound, 1 part by weight of active compound or active compound combination is mixed with the stated amount of solvent and emulsifier, and the concentrate is diluted with water to the desired concentration. To test for curative activity, young plants are sprayed with a conidia suspension of Pyrenophora teres. The plants remain in an incubation cabin at 20° C. and 100% relative atmospheric humidity for 48 hours. The plants are then sprayed with the preparation of active compound at the stated application rate. The plants are placed in a greenhouse at a temperature of about 20° C. and a relative atmospheric humidity of about 80%. Evaluation is carried out 7 days after the inoculation. 0% means an efficacy which corresponds to that of the control, whereas an efficacy of 100% means that no infection is observed.

First: CON=C(C(=O)OC)c1ccccc1CO/N=C(\C)c1cccc(C(F)(F)F)c1 [(I), 2-[α-{[(α-methyl-3-trifluoromethylbenzyl)imino]oxy}-o-tolyl]glyoxylic acid methyl ester O-methyl oxime]
Second: CON=C(C1=NOCCO1)c1ccccc1Oc1ncnc(Oc2ccccc2Cl)c1F [(III), 3-[1-[2-(4-<2-chlorophenoxy>-5-fluoropyrimid-6-yloxy)phenyl]-1-(methox-imino)methyl]-5,6-dihydro-1,4,2-dioxazine]
The Efficacy in % of the first is lower: 56% for the first, 67% for the second.

`OC(Cc1ccccc1Cl)(Cn1nc[nH]c1=S)C1(Cl)CC1` (stereo not drawn) [(II), 2-[2-(1-chlorocyclopropyl)-3-(2-chlorophenyl)-2-hydroxypropyl]-2,4 dihydro[1,2,4]triazole-3-thione] was tested, and the Efficacy in % was 56%.
